Measurements: ChEMBL document CHEMBL3885861, “Open TG-GATES”

Species: Rattus norvegicus
Assay: Open TG-GATES - Regimen: Daily Repeat
Assay type: toxicity, organism-based, Sprague-Dawley
Parameters: regimen Daily Repeat, gender Male, age 6 weeks
Conditions: in vivo, po, route gavage; for APTT / Bas / Eos / Fbg / Hb / Ht / Lym / MCH / MCHC / MCV / Mono / Neu / PT / Plat / RBC / Ret / WBC: tissue Blood; for KIDNEY_L / KIDNEY_R / KIDNEY_TOTAL: tissue Kidney; for LIVER: tissue Liver; for A/G / ALP / ALT / AST / BUN / CRE / Ca / Cl / DBIL / GLC / IP / K / LDH / Na / PL / RALB / TBIL / TC / TG / TP / gamma-GTP: tissue Plasma
[1] = 0 mg/kg, 72 h, dose level Control, time 3 day
[2] = 0 mg/kg, […], dose level Control, time 7 day
[3] = 0 mg/kg, […], dose level Control, time 14 day
[4] = 0 mg/kg, […], dose level Control, time 28 day
[5] = 5 mg/kg, 72 h, dose level Low, time 3 day
[6] = 5 mg/kg, […], dose level Low, time 7 day
[7] = 5 mg/kg, […], dose level Low, time 14 day
[8] = 5 mg/kg, […], dose level Low, time 28 day

CC1=C(CC(=O)O)c2cc(F)ccc2/C1=C\c1ccc([S+](C)[O-])cc1 (centres undefined)
TERMINAL_BW [1]: 233.7 g
APTT [1]: 16 s
Bas [1]: 0%
Eos [1]: 1%
Fbg [1]: 298.2 mg/dL
Hb [1]: 14.3 g/dL
Ht [1]: 42.9%
Lym [1]: 79%
MCH [1]: 21.6 pg
MCHC [1]: 33.3%
MCV [1]: 64.9 fL
Mono [1]: 2.2%
Neu [1]: 17%
PT [1]: 13.8 s
Plat [1]: 126.4 x10_4/uL
RBC [1]: 662.2 x10_4/ul
Ret [1]: 7.1%
WBC [1]: 84.9 x10_2/uL
KIDNEY_L [1]: 1 g
KIDNEY_R [1]: 1 g
KIDNEY_TOTAL [1]: 1.9 g
LIVER [1]: 11.1 g
A/G [1]: 0.9
ALP [1]: 1760.4 IU/L
ALT [1]: 44 IU/L
AST [1]: 69.4 IU/L
BUN [1]: 15 mg/dL
CRE [1]: 0.2 mg/dL
Ca [1]: 11.2 mg/dL
Cl [1]: 105.8 meq/L
DBIL [1]: 0.014 mg/dL
GLC [1]: 180.6 mg/dL
IP [1]: 7.5 mg/dL
K [1]: 4.2 meq/L
LDH [1]: 73.8 IU/L
Na [1]: 142 meq/L
PL [1]: 160.8 mg/dL
RALB [1]: 2.7 g/dL
TBIL [1]: 0.02 mg/dL
TC [1]: 80.4 mg/dL
TG [1]: 111.6 mg/dL
TP [1]: 5.6 g/dL
gamma-GTP [1]: 1 IU/L
TERMINAL_BW [2]: 270.8 g
TERMINAL_BW [3]: 336.8 g
TERMINAL_BW [4]: 383.5 g
APTT [2]: 16.4 s
Bas [2]: 0.2%
Eos [2]: 1%
Fbg [2]: 306.6 mg/dL
Hb [2]: 14.4 g/dL
Ht [2]: 42.3%
Lym [2]: 81.2%
MCH [2]: 21.3 pg
MCHC [2]: 34.1%
MCV [2]: 62.5 fL
Mono [2]: 2.6%
Neu [2]: 14.4%
PT [2]: 13.6 s
Plat [2]: 131.7 x10_4/uL
RBC [2]: 678.6 x10_4/ul
Ret [2]: 5.9%
WBC [2]: 91.7 x10_2/uL
APTT [3]: 17.6 s
Bas [3]: 0.2%
Eos [3]: 1%
Fbg [3]: 299.8 mg/dL
Hb [3]: 15.1 g/dL
Ht [3]: 44.6%
Lym [3]: 76.8%
MCH [3]: 20.9 pg
MCHC [3]: 33.9%
MCV [3]: 61.5 fL
Mono [3]: 2.4%
Neu [3]: 19.6%
PT [3]: 14.2 s
Plat [3]: 124.3 x10_4/uL
RBC [3]: 725.2 x10_4/ul
Ret [3]: 4.3%
WBC [3]: 92.8 x10_2/uL
APTT [4]: 17.9 s
Bas [4]: 0.2%
Eos [4]: 1.8%
Fbg [4]: 282.6 mg/dL
Hb [4]: 15.2 g/dL
Ht [4]: 46.1%
Lym [4]: 79.2%
MCH [4]: 18.9 pg
MCHC [4]: 32.9%
MCV [4]: 57.4 fL
Mono [4]: 1.8%
Neu [4]: 16.2%
PT [4]: 13.2 s
Plat [4]: 109 x10_4/uL
RBC [4]: 802.4 x10_4/ul
Ret [4]: 2.4%
WBC [4]: 108.9 x10_2/uL
KIDNEY_L [2]: 1.1 g
KIDNEY_R [2]: 1.1 g
KIDNEY_TOTAL [2]: 2.1 g
KIDNEY_L [3]: 1.3 g
KIDNEY_R [3]: 1.3 g
KIDNEY_TOTAL [3]: 2.5 g
KIDNEY_L [4]: 1.3 g
KIDNEY_R [4]: 1.3 g
KIDNEY_TOTAL [4]: 2.6 g
LIVER [2]: 12.7 g
LIVER [3]: 14.8 g
LIVER [4]: 14.9 g
A/G [2]: 0.9
ALP [2]: 1662.6 IU/L
ALT [2]: 45.2 IU/L
AST [2]: 69.8 IU/L
BUN [2]: 16.8 mg/dL
CRE [2]: 0.2 mg/dL
Ca [2]: 10.9 mg/dL
Cl [2]: 104.4 meq/L
DBIL [2]: 0.012 mg/dL
GLC [2]: 183 mg/dL
IP [2]: 7.2 mg/dL
K [2]: 4.2 meq/L
LDH [2]: 108.4 IU/L
Na [2]: 140.4 meq/L
PL [2]: 177 mg/dL
RALB [2]: 2.7 g/dL
TBIL [2]: 0.018 mg/dL
TC [2]: 94.2 mg/dL
TG [2]: 120.4 mg/dL
TP [2]: 5.7 g/dL
gamma-GTP [2]: 0.8 IU/L
A/G [3]: 0.9
ALP [3]: 1218 IU/L
ALT [3]: 38.6 IU/L
AST [3]: 66.8 IU/L
BUN [3]: 17.8 mg/dL
CRE [3]: 0.2 mg/dL
Ca [3]: 11.1 mg/dL
Cl [3]: 105.4 meq/L
DBIL [3]: 0.012 mg/dL
GLC [3]: 180 mg/dL
IP [3]: 6 mg/dL
K [3]: 3.8 meq/L
LDH [3]: 65.6 IU/L
Na [3]: 143.6 meq/L
PL [3]: 163.4 mg/dL
RALB [3]: 2.8 g/dL
TBIL [3]: 0.044 mg/dL
TC [3]: 73.2 mg/dL
TG [3]: 175.4 mg/dL
TP [3]: 5.9 g/dL
gamma-GTP [3]: 1 IU/L
A/G [4]: 0.8
ALP [4]: 1152 IU/L
ALT [4]: 35.8 IU/L
AST [4]: 63.6 IU/L
BUN [4]: 16.8 mg/dL
CRE [4]: 0.3 mg/dL
Ca [4]: 10.3 mg/dL
Cl [4]: 105 meq/L
DBIL [4]: 0.012 mg/dL
GLC [4]: 192.2 mg/dL
IP [4]: 6.5 mg/dL
K [4]: 3.6 meq/L
LDH [4]: 82.8 IU/L
Na [4]: 142 meq/L
PL [4]: 128.8 mg/dL
RALB [4]: 2.7 g/dL
TBIL [4]: 0.074 mg/dL
TC [4]: 57.4 mg/dL
TG [4]: 125.6 mg/dL
TP [4]: 6 g/dL
gamma-GTP [4]: 1 IU/L
TERMINAL_BW [5]: 233.7 g
APTT [5]: 15.8 s
Bas [5]: 0%
Eos [5]: 1%
Fbg [5]: 306.2 mg/dL
Hb [5]: 14.4 g/dL
Ht [5]: 42.7%
Lym [5]: 72.4%
MCH [5]: 21.2 pg
MCHC [5]: 33.8%
MCV [5]: 62.7 fL
Mono [5]: 2.4%
Neu [5]: 23.8%
PT [5]: 13.7 s
Plat [5]: 128.2 x10_4/uL
RBC [5]: 681.2 x10_4/ul
Ret [5]: 6.8%
WBC [5]: 91.3 x10_2/uL
KIDNEY_L [5]: 1 g
KIDNEY_R [5]: 1 g
KIDNEY_TOTAL [5]: 1.9 g
LIVER [5]: 11.2 g
A/G [5]: 0.9
ALP [5]: 1483.6 IU/L
ALT [5]: 40.6 IU/L
AST [5]: 67.8 IU/L
BUN [5]: 15.2 mg/dL
CRE [5]: 0.2 mg/dL
Ca [5]: 11.1 mg/dL
Cl [5]: 106.2 meq/L
DBIL [5]: 0.01 mg/dL
GLC [5]: 177 mg/dL
IP [5]: 7.3 mg/dL
K [5]: 4.2 meq/L
LDH [5]: 76 IU/L
Na [5]: 142 meq/L
PL [5]: 168.2 mg/dL
RALB [5]: 2.7 g/dL
TBIL [5]: 0.018 mg/dL
TC [5]: 88 mg/dL
TG [5]: 121.8 mg/dL
TP [5]: 5.6 g/dL
gamma-GTP [5]: 1.2 IU/L
TERMINAL_BW [6]: 272.8 g
TERMINAL_BW [7]: 329.4 g
TERMINAL_BW [8]: 403.3 g
APTT [6]: 18.1 s
Bas [6]: 0%
Eos [6]: 1%
Fbg [6]: 300.2 mg/dL
Hb [6]: 14.2 g/dL
Ht [6]: 41.6%
Lym [6]: 79%
MCH [6]: 21.3 pg
MCHC [6]: 34.2%
MCV [6]: 62.3 fL
Mono [6]: 2%
Neu [6]: 17.4%
PT [6]: 13.7 s
Plat [6]: 134 x10_4/uL
RBC [6]: 667.8 x10_4/ul
Ret [6]: 5.8%
WBC [6]: 93.6 x10_2/uL
APTT [7]: 17.3 s
Bas [7]: 0%
Eos [7]: 1%
Fbg [7]: 321 mg/dL
Hb [7]: 15.5 g/dL
Ht [7]: 45.7%
Lym [7]: 77.2%
MCH [7]: 21.1 pg
MCHC [7]: 34%
MCV [7]: 62.1 fL
Mono [7]: 2.2%
Neu [7]: 18.6%
PT [7]: 13.8 s
Plat [7]: 123.9 x10_4/uL
RBC [7]: 737.2 x10_4/ul
Ret [7]: 4%
WBC [7]: 93.7 x10_2/uL
APTT [8]: 17.8 s
Bas [8]: 0%
Eos [8]: 1.4%
Fbg [8]: 292 mg/dL
Hb [8]: 15.4 g/dL
Ht [8]: 46.5%
Lym [8]: 79%
MCH [8]: 18.6 pg
MCHC [8]: 33.1%
MCV [8]: 56.4 fL
Mono [8]: 2%
Neu [8]: 17.4%
PT [8]: 12.8 s
Plat [8]: 112.3 x10_4/uL
RBC [8]: 826.8 x10_4/ul
Ret [8]: 2.6%
WBC [8]: 97.8 x10_2/uL
KIDNEY_L [6]: 1.2 g
KIDNEY_R [6]: 1.2 g
KIDNEY_TOTAL [6]: 2.3 g
KIDNEY_L [7]: 1.3 g
KIDNEY_R [7]: 1.3 g
KIDNEY_TOTAL [7]: 2.5 g
KIDNEY_L [8]: 1.4 g
KIDNEY_R [8]: 1.4 g
KIDNEY_TOTAL [8]: 2.8 g
LIVER [6]: 13.1 g
LIVER [7]: 14.3 g
LIVER [8]: 16.6 g
A/G [6]: 0.9
ALP [6]: 1462.4 IU/L
ALT [6]: 37.6 IU/L
AST [6]: 67.4 IU/L
BUN [6]: 17.6 mg/dL
CRE [6]: 0.2 mg/dL
Ca [6]: 11 mg/dL
Cl [6]: 104.2 meq/L
DBIL [6]: 0.012 mg/dL
GLC [6]: 183.6 mg/dL
IP [6]: 6.4 mg/dL
K [6]: 4.2 meq/L
LDH [6]: 98 IU/L
Na [6]: 140.6 meq/L
PL [6]: 156.6 mg/dL
RALB [6]: 2.7 g/dL
TBIL [6]: 0.022 mg/dL
TC [6]: 78.8 mg/dL
TG [6]: 122.4 mg/dL
TP [6]: 5.8 g/dL
gamma-GTP [6]: 1 IU/L
A/G [7]: 0.9
ALP [7]: 1448 IU/L
ALT [7]: 40 IU/L
AST [7]: 65.6 IU/L
BUN [7]: 16.4 mg/dL
CRE [7]: 0.2 mg/dL
Ca [7]: 11 mg/dL
Cl [7]: 105.4 meq/L
DBIL [7]: 0.01 mg/dL
GLC [7]: 177.2 mg/dL
IP [7]: 6.2 mg/dL
K [7]: 3.6 meq/L
LDH [7]: 62.4 IU/L
Na [7]: 143 meq/L
PL [7]: 163 mg/dL
RALB [7]: 2.8 g/dL
TBIL [7]: 0.044 mg/dL
TC [7]: 74.6 mg/dL
TG [7]: 153.8 mg/dL
TP [7]: 6 g/dL
gamma-GTP [7]: 1 IU/L
A/G [8]: 0.8
ALP [8]: 1234.6 IU/L
ALT [8]: 34.4 IU/L
AST [8]: 63.8 IU/L
BUN [8]: 17.4 mg/dL
CRE [8]: 0.3 mg/dL
Ca [8]: 10.6 mg/dL
Cl [8]: 103.8 meq/L
DBIL [8]: 0.014 mg/dL
GLC [8]: 187 mg/dL
IP [8]: 6.4 mg/dL
K [8]: 3.6 meq/L
LDH [8]: 72.8 IU/L
Na [8]: 142.8 meq/L
PL [8]: 164.8 mg/dL
RALB [8]: 2.8 g/dL
TBIL [8]: 0.08 mg/dL
TC [8]: 77.8 mg/dL
TG [8]: 195 mg/dL
TP [8]: 6.4 g/dL
gamma-GTP [8]: 1 IU/L
